In PMC9000871, “Rhodamine 101 Conjugates of Triterpenoic Amides Are of Comparable Cytotoxicity as Their Rhodamine B Analogs” (Molecules, 2022):

Key:
A375 (melanoma) = assay: SRB cytotoxicity assay, A375; type: cell-based, human; details: Homo sapiens, A-375, 72 h, 72 h of treatment, mean ± standard mean error
From the text: (§1) The cell lines were obtained from Department of Oncology (Martin-Luther-University Halle Wittenberg; they were bought from ATCC; A 375 (CRL-1619), HT29 (HTB-38), MCF7 (HTM-22), A2780 (HTP-77), FaDu (HTP-43), NIH 3T3 (CRL-1658), HEK-293 (CRL-1573)). Cultures were maintained as monolayers in RPMI 1640 medium with L-glutamine (Capricorn Scientific GmbH, Ebsdorfergrund, Germany) supplemented with 10% heat inactivated fetal bovine serum (Sigma-Aldrich Chemie GmbH, Steinheim, Germany) and penicillin/streptomycin (1%, Capricorn Scientific GmbH, Ebsdorfergrund, Germany) at 37 °C in a humidified atmosphere with 5% CO2. The cytotoxicity of the compounds was evaluated using the sulforhodamine-B (Kiton-Red S, ABCR) micro culture colorimetric assay using confluent cells in 96-well plates with the seeding of the cells on day 0 applying appropriate cell densities to prevent confluence of the cells during the period of the experiment. On day 1, the cells were treated with six different concentrations (1, 3, 7, 12, 20, and 30 μM); thereby, the final concentration of DMSO was always <0.5%, generally regarded as non-toxic to the cells. On day 4, the supernatant medium was discarded; the cells were fixed with 10% trichloroacetic acid. After another day at 4 °C, the cells were washed in a strip washer and dyed with the SRB solution (100 μL, 0.4% in 1% acetic acid) for about 20 min to be followed by washing of the plates (four times, 1% acetic acid) and air-drying overnight. Furthermore, tris base solution (200 μL, 10 mM) was added to each well and absorbance was measured at λ = 570 nm employing a reader (96 wells, Tecan Spectra, Crailsheim, Germany). The EC50 values were averaged from three independent experiments performed each in triplicate calculated from semi logarithmic dose response curves applying a non-linear four-parameter Hills-slope equation (GraphPad Prism5; variables top and bottom were set to 100 and 0, respectively).

[1] = test system: HT29 (colon adenocarcinoma); assay: SRB cytotoxicity assay, HT29; type: cell-based, human; details: Homo sapiens, HT-29, 72 h, 72 h of treatment, mean ± standard mean error
From the text: as §1

[2] = test system: MCF-7 (breast adenocarcinoma); assay: SRB cytotoxicity assay, MCF-7; type: cell-based; details: Homo sapiens, MCF7, 72 h of treatment, mean ± standard mean error
From the text: as §1

[3] = test system: A2780 (ovarian carcinoma); assay: SRB cytotoxicity assay, A2780; type: cell-based; details: Homo sapiens, 72 h of treatment, mean ± standard mean error
From the text: as §1

[4] = test system: FaDu (hypopharyngeal carcinoma); assay: SRB cytotoxicity assay, FaDu; type: cell-based; details: Homo sapiens, 72 h of treatment, mean ± standard mean error
From the text: as §1

[5] = test system: NIH 3T3 (fibroblasts), non-malignant; assay: SRB cytotoxicity assay, NIH 3T3; type: cell-based; details: Mus musculus, NIH3T3, 72 h, 72 h of treatment, mean ± standard mean error
From the text: as §1

[6] = test system: human tumor cell lines (A375, HT29, MCF-7, A2780, FaDu); assay: SRB cytotoxicity assay, statements across the cell line panel; type: cell-based; details: span over all cell lines tested, cut-off of the assay 30 µM
From the text: as §1, with “On day 1, the cells were treated with six different concentrations (1, 3, 7, 12, 20, and 30 μM); thereby, the final concentration of DMSO was always <0.5%, generally regarded as non-toxic to the cells. On day 4, the supernatant medium was discarded; the cells were fixed with 10% trichloroacetic acid. After another day at 4 °C, the cells were washed in a strip washer and dyed with the SRB solution (100 μL, 0.4% in 1% acetic acid) for about 20 min to be followed by washing of the plates (four times, 1% acetic acid) and air-drying overnight.” left out

HeLa (cervical cancer) = assay: SRB cytotoxicity assay, HeLa; type: cell-based; details: Homo sapiens, 72 h of treatment, mean ± standard mean error
[7] = test system: HEK293 (human embryonic kidney), non-malignant; assay: SRB cytotoxicity assay, HEK293; type: cell-based; details: 72 h of treatment, mean ± standard mean error
From the text: as §1

Compound | EC50 (A375 (melanoma)) [nM] | EC50 [1] [nM] | EC50 [2] [nM] | EC50 [3] [nM] | EC50 [4] [nM] | EC50 [5] [nM] | EC50 values across the cell lines [6] | EC50 (HeLa (cervical cancer)) [nM] | EC50 [7] [nM]
CC(=O)O[C@H]1CC[C@@]2(C)C(CC[C@]3(C)C2CCC2C4[C@H](C(C)=O)CC[C@]4(C(=O)O)CC[C@]23C)C1(C)C (stereo partly drawn) [compound 4, 3β-Acetyloxy-20-oxo-30-norlupan-28-oic Acid] | > 30000 | > 30000 | > 30000 | > 30000 | > 30000 | > 30000 | not cytotoxic at all within the limits of the assay | – | –
CC(=O)O[C@H]1CC[C@@]2(C)C(CC[C@]3(C)C2CC=C2C4CC(C)(C)CC[C@]4(C(=O)N4CCCN(C(=O)c5ccccc5C5=c6cc7c8c(c6Oc6c5cc5c9c6CCCN9CCC5)CCC[N+]=8CCC7)CC4)CC[C@]23C)C1(C)C (stereo partly shown) [compound 26] | 70 ± 10 | 130 ± 30 | 120 ± 30 | 70 ± 30 | – | 260 ± 50 | – | 100 ± 50 | 50 ± 10
CC(=O)O[C@H]1CC[C@@]2(C)C(CC[C@]3(C)C2CC=C2C4[C@@H](C)[C@H](C)CC[C@]4(C(=O)N4CCCN(C(=O)c5ccccc5C5=c6cc7c8c(c6Oc6c5cc5c9c6CCCN9CCC5)CCC[N+]=8CCC7)CC4)CC[C@]23C)C1(C)C (stereo partly shown) [compound 27] | 60 ± 40 | 80 ± 20 | 80 ± 30 | 50 ± 20 | – | 240 ± 30 | – | 90 ± 60 | 40 ± 10
CC(=O)O[C@H]1CC[C@@]2(C)C(CC[C@]3(C)C2CCC2C4[C@H](C(C)=O)CC[C@]4(C(=O)N4CCCN(C(=O)c5ccccc5C5=c6cc7c8c(c6Oc6c5cc5c9c6CCCN9CCC5)CCC[N+]=8CCC7)CC4)CC[C@]23C)C1(C)C (stereo partly shown) [compound 28] | 200 ± 30 | 350 ± 50 | 200 ± 50 | 170 ± 40 | – | 390 ± 50 | – | 310 ± 150 | 120 ± 30
